Values joined by “and” are separate entries in the source; they are usually repeats but may differ in a detail not shown here. Equal entries are not always repeated. Toxic doses and inconclusive results are not listed. The calls were made as follows: active = survival T/C of 150% or more; inactive = T/C below 125% in these data.
Test system: P388 leukemia ip, CD2F1 mice, survival T/C
Assay: NCI In Vivo Anticancer Drug Screen. Data for tumor model P388 Leukemia (intraperitoneal) in CD2F1 (CDF1) mice
Conditions: endpoint: median survival time, higher = longer survival
Summary of the method: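 Mice carrying the transplanted tumor received test compound or vehicle. Survival was recorded in each group, and the value is the treated-group measurement divided by that of the vehicle-treated control group.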

[1] = dose: 100.0 mg/kg/injection, schedule: Q01DX009 (ip), vehicle: saline
[2] = dose: 200.0 mg/kg/injection, schedule: Q01DX009 (ip), vehicle: saline
[3] = dose: 100.0 mg/kg/injection, schedule: Q01DX001 (ip), vehicle: saline with Tween-80
[4] = dose: 200.0 mg/kg/injection, schedule: Q01DX001 (ip), vehicle: saline with Tween-80

Measured: T/C

CC(N=c1ccccn1O)C(O)c1ccccc1 (centres undefined)
inactive: dose: 50.0 mg/kg/injection, schedule: Q01DX009 (ip), vehicle: saline 101 % of control | [1] 97 % of control | [2] 97 % of control

CCCCCCCC/C=C\CCCCCCCC(=O)OCCCCCCCCCCCCCCCCC
inactive: dose: 100.0 mg/kg/injection, schedule: Q01DX009 (ip), vehicle: saline with Tween-80 100 % of control | dose: 200.0 mg/kg/injection, schedule: Q01DX009 (ip), vehicle: saline with Tween-80 100 % of control | dose: 400.0 mg/kg/injection, schedule: Q01DX009 (ip), vehicle: saline with Tween-80 96 % of control

N#Cc1c(C(=O)NN)c2c(-c3ccccc3)n[nH]c(=O)c2[nH]c1=O
inactive: [3] 100 % of control | [4] 91 % of control

CCOC(=O)CN=CC1CCC=CO1 (centres undefined)
inactive: dose: 100.0 mg/kg/injection, schedule: Q04DX003 (ip), vehicle: saline with Tween-80 100 % of control | dose: 200.0 mg/kg/injection, schedule: Q04DX003 (ip), vehicle: saline with Tween-80 100 % of control | dose: 400.0 mg/kg/injection, schedule: Q04DX003 (ip), vehicle: saline with Tween-80 100 % of control

O=C1c2ccccc2C(=O)N1Cc1ccccc1[N+](=O)[O-]
inactive: dose: 6.25 mg/kg/injection, schedule: Q01DX009 (ip), vehicle: saline with Tween-80 95 % of control | dose: 12.5 mg/kg/injection, schedule: Q01DX009 (ip), vehicle: saline with Tween-80 88 % of control | dose: 25.0 mg/kg/injection, schedule: Q01DX009 (ip), vehicle: saline with Tween-80 89 % of control | [1] 98 % of control | [2] 102 % of control

COc1cc(C(C)c2cc3c(cc2OCC(=O)O)OCO3)cc(OC)c1OC (centres undefined)
inactive: dose: 50.0 mg/kg/injection, schedule: Q01DX005 (ip), vehicle: distilled water + Tween-80 102 % of control | dose: 100.0 mg/kg/injection, schedule: Q01DX005 (ip), vehicle: distilled water + Tween-80 97 % of control | dose: 200.0 mg/kg/injection, schedule: Q01DX005 (ip), vehicle: distilled water + Tween-80 93 % of control

Cn1c(N)c(C(=S)N2CCOCC2)c(=O)n(C)c1=O
inactive: dose: 25.0 mg/kg/injection, schedule: Q04DX002 (ip), vehicle: saline with Tween-80 100 % of control | dose: 50.0 mg/kg/injection, schedule: Q04DX002 (ip), vehicle: saline with Tween-80 104 % of control | dose: 100.0 mg/kg/injection, schedule: Q04DX002 (ip), vehicle: saline with Tween-80 104 % of control

Cc1ccc2c3nc4ccccc4c-3csc2c1
inactive: dose: 18.0 mg/kg/injection, schedule: Q01DX009 (ip), vehicle: saline 104 % of control | dose: 27.5 mg/kg/injection, schedule: Q01DX009 (ip), vehicle: saline 89 % of control

CC(=O)NS(=O)(=O)c1ccc(N=NC2C(=O)N(C(=O)c3ccc(Cl)cc3)N=C2C)cc1 (centres undefined)
inactive: dose: 1.5 mg/kg/injection, schedule: Q01DX001 (ip), vehicle: saline with Tween-80 100 % of control | dose: 3.0 mg/kg/injection, schedule: Q01DX001 (ip), vehicle: saline with Tween-80 104 % of control | dose: 6.0 mg/kg/injection, schedule: Q01DX001 (ip), vehicle: saline with Tween-80 107 % of control | dose: 12.0 mg/kg/injection, schedule: Q01DX001 (ip), vehicle: saline with Tween-80 100 % of control | dose: 12.5 mg/kg/injection, schedule: Q01DX001 (ip), vehicle: saline with Tween-80 94 % of control

CC(=O)OC1COC(n2nnc3c(=O)[nH]cnc32)C(OC(C)=O)C1OC(C)=O (centres undefined)
inactive: [3] 103 % of control | [4] 103 % of control | dose: 400.0 mg/kg/injection, schedule: Q01DX001 (ip), vehicle: saline with Tween-80 103 % of control

CC(=O)N1CCCC2=C1CCC2
inactive: dose: 25.0 mg/kg/injection, schedule: Q04DX003 (ip), vehicle: saline 104 % of control | dose: 50.0 mg/kg/injection, schedule: Q04DX003 (ip), vehicle: saline 100 % of control | dose: 100.0 mg/kg/injection, schedule: Q04DX003 (ip), vehicle: saline 94 % of control and 97 % of control

Cc1nnn(NC(=O)Cc2ccccc2)c1C
inactive: dose: 100.0 mg/kg/injection, schedule: Q01DX001 (ip), vehicle: Klucel (hydroxypropylcellulose) (HPC) 98 % of control | dose: 200.0 mg/kg/injection, schedule: Q01DX001 (ip), vehicle: Klucel (hydroxypropylcellulose) (HPC) 99 % of control | dose: 400.0 mg/kg/injection, schedule: Q01DX001 (ip), vehicle: Klucel (hydroxypropylcellulose) (HPC) 99 % of control

O=C([O-])C(=O)[N-]CCC[N-]C(=O)C(=O)[N-]CCC[N-]C(=O)C(=O)[O-].[Cu+2].[Cu+2].[Na+]
inactive: dose: 3.75 mg/kg/injection, schedule: Q01DX005 (ip), vehicle: saline with Tween-80 103 % of control | dose: 7.5 mg/kg/injection, schedule: Q01DX005 (ip), vehicle: saline with Tween-80 104 % of control | dose: 15.0 mg/kg/injection, schedule: Q01DX005 (ip), vehicle: saline with Tween-80 101 % of control

Nc1[nH]c(=S)nc2nc3c4ccccc4c4ccccc4c3nc12
inactive: dose: 50.0 mg/kg/injection, schedule: Q01DX005 (ip), vehicle: Klucel (hydroxypropylcellulose) (HPC) 91 % of control | dose: 100.0 mg/kg/injection, schedule: Q01DX005 (ip), vehicle: Klucel (hydroxypropylcellulose) (HPC) 90 % of control | dose: 200.0 mg/kg/injection, schedule: Q01DX005 (ip), vehicle: Klucel (hydroxypropylcellulose) (HPC) 91 % of control
